One molecule from patent publication US10914725B2, “Culture medium additive, culture medium composition, and method for culturing cells or tissue using same” (NISSAN CHEMICAL INDUSTRIES, LTD., priority 2015, dated 2021) can be followed below.

Assay [1] relates to adenocarcinomic human alveolar basal epithelial cell line A549. The experiment in a line: High content analysis of anti-cancer agent by cell image analysis (Experimental Example 5). The conditions noted are these: 0.03 (w/v)% low-molecular agar medium; for average cell number per sphere / number of average spheres per 10 mm^2 / projected area: 10 days. In kind it is cell-based. The procedure:
By a method similar to the preparation method of medium composition in Analysis Example 1, a medium composition containing 10 (v/v) % FBS, and 0.03 (w/v) % of low-molecular agar or agar for general use in DMEM (manufactured by Wako Pure Chemical Industries, Ltd.) was prepared. Paclitaxel (manufactured by Wako Pure Chemical Industries, Ltd.) was further added to a final concentration of 0.001 μM, 0.01 μM or 0.1 μM. Successively, adenocarcinomic human alveolar basal epithelial cell line A549 (manufactured by DS PHARMA BIOMEDICAL CO., LTD.) was seeded in the above-mentioned medium composition containing low-molecular agar at 5,000 cells/mL, and dispensed to the wells of a 96 well flat bottom ultra-low attachment surface microplate (manufactured by Corning Incorporated, #3474) at 100 μL per 1 well. Successively, the plate was cultured in a standing state in a CO2 incubator (37° C., 5% CO2) for 10 days.
Then, a solution of […] of Hoechst 33342 (manufactured by Invitrogen) in DMEM (phenol red, L-glutamine free) (manufactured by Wako Pure Chemical Industries, Ltd.) was prepared, and added, at 10 μL per 1 well, to the above-mentioned culture after static culture for 10 days, and the mixture was stood in a CO2 incubator (37° C., 5% CO2) for 45 min. Successively, a solution of 20 μg/mL Propidium Iodide (manufactured by BIOMOL) in DMEM (phenol red, L-glutamine free) (manufactured by Wako Pure Chemical Industries, Ltd.) was prepared and added at 10 μL per 1 well. The plate was centrifuged at 1,500 rpm for 10 min, and high content analysis was performed by cell image analysis using a cell imaging apparatus (“ArrayScan VTI HCS Reader”, manufactured by Thermo Fisher Scientific). At that time, observation was performed with 10 fields of view per well using a ×4 objective lens, cell outline and cell nucleus were detected from Hoechst33342 fluorescence image, and dead cells were detected from propidium iodide fluorescence image. In addition, 50% inhibitory concentration (nM) of paclitaxel by high content analysis was calculated with the number of constituent cells when the anticancer agent was added at the maximum concentration as 100% inhibition rate of sphere formation.
The observed images (area per 1 field: 1 mm^2) of A549 cells cultured for 10 days in the medium composition of the present invention containing low-molecular agar, negative control and comparison control (medium composition containing deacylated gellan gum) by a cell imaging apparatus are shown in FIG. 8. In addition, number of constituent cells of A549 cell spheres (average cell number per sphere), sphere number (average sphere number per 10 mm^2), projected area of sphere (size) (μm^2), obtained from the cell imaging analysis, are shown in Table 12. As for the negative control and comparison control, the relative cell number when the amount of luminescence without addition of the anticancer agent is 1 was determined from the measurement results of the surviving cell number using the intracellular ATP as an index, and shown in Table 13. Furthermore, the 50% inhibitory concentration (nM) of paclitaxel calculated from the amount of luminescence based on intracellular ATP and high content analysis are shown in Table 14.

For assay [2] the test system is unchanged. The experiment in a line: High content analysis of anticancer agents by cell image analysis (Experimental Example 8).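 On projected area: Projected area in square micrometres.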 The format is cell-based. The conditions noted are these: for average cell number per sphere / average dead cell number in sphere / average sphere number per 20 mm^2 / projected area: 0.03 (w/v)% low-molecular agar medium, 7 days with agent. The procedure: Adenocarcinomic human alveolar basal epithelial cell line A549 (manufactured by DS PHARMA BIOMEDICAL CO., LTD.) was suspended in the above-mentioned medium composition containing low-molecular agar at 11,000 cells/mL. […] The plate was stood in a CO2 incubator (37° C., 5% CO2) overnight. The next day, paclitaxel (manufactured by Wako Pure Chemical Industries, Ltd.) and trametinib (manufactured by SANTA CRUZ) were further added by 10 μl per 1 well at a final concentration of 0.001 μM, 0.01 μM and 0.1 μM, respectively, mitomycin C (manufactured by Wako Pure Chemical Industries, Ltd.) at a final concentration of 0.005 μM, 0.05 μM and 0.5 μM, and MK2206 (manufactured by SANTA CRUZ) at a final concentration of 0.001 μM, 0.01 μM, 0.1 μM and 1 μM. Successively, the plate was further cultured in a standing state in a CO2 incubator (37° C., 5% CO2) for 7 days.
Successively, a solution of 20 μg/mL Propidium Iodide (manufactured by BIOMOL) in DMEM (phenol red, L-glutamine free) (manufactured by Wako Pure Chemical Industries, Ltd.) was prepared and added at 10 μL per 1 well, and the culture medium was suspended. The plate was centrifuged at 1,500 rpm for 1 min, and high content analysis was performed by cell image analysis using a cell imaging apparatus (“ArrayScan VTI HCS Reader”, manufactured by Thermo Fisher Scientific). At that time, observation was performed with 20 fields of view per well using a ×10 objective lens, cell outline and cell nucleus were detected from Hoechst33342 fluorescence image, and dead cells were detected from propidium iodide fluorescence image. In addition, 50% inhibitory concentration (nM) of each anticancer agent by high content analysis was calculated from the number of spheres constituted of not less than 5 cells. In this case, the value without addition of the anticancer agent was taken as 0% sphere formation inhibitory rate.

In the case of `CC(=O)O[C@H]1C(=O)[C@@]2(C)[C@H]([C@H](OC(=O)c3ccccc3)[C@]3(O)C[C@H](OC(=O)[C@H](O)[C@@H](NC(=O)c4ccccc4)c4ccccc4)C(C)=C1C3(C)C)[C@]1(OC(C)=O)CO[C@@H]1C[C@@H]2O` [paclitaxel, Paclitaxel], the IC50 amounted to 1.9 nM in assay [1] (Homo sapiens, A549, high content analysis by cell image analysis, number of constituent cells, read-out: paclitaxel 50% inhibitory concentration) and 4.1 nM in assay [2] (Homo sapiens, A549, high content analysis by cell image analysis, number of spheres of not less than 5 cells, low-molecular agar-containing medium, read-out: 50% inhibitory concentration). The “average cell number per sphere” value is given as 5.353 in assay [1] (paclitaxel 0.001 μM); 1.52 in assay [1] (paclitaxel 0.01 μM); 1.165 in assay [1] (paclitaxel 0.1 μM); 4.817 in assay [2] (agent 0.001 μM); 2.3 in assay [2] (agent 0.01 μM); 1.662 in assay [2] (agent 0.1 μM). Moreover, the “number of average spheres per 10 mm^2” value in assay [1] (paclitaxel 0.001 μM) is listed as 39.33; in assay [1] (paclitaxel 0.01 μM), 18; in assay [1] (paclitaxel 0.1 μM), 6.333. Besides, the projected area in assay [1] (paclitaxel 0.001 μM) was determined as 1161 μm^2; in assay [1] (paclitaxel 0.01 μM), 578 μm^2; in assay [1] (paclitaxel 0.1 μM), 402 μm^2; in assay [2] (agent 0.001 μM), 1271 μm^2; in assay [2] (agent 0.01 μM) it was 797 μm^2; in assay [2] (agent 0.1 μM), 647 μm^2. For the same molecule, the “average dead cell number in sphere” value stood at 0.064 in assay [2] (agent 0.001 μM), 0.336 in assay [2] (agent 0.01 μM) and 0.591 in assay [2] (agent 0.1 μM). In addition, the “average sphere number per 20 mm^2” value in assay [2] (agent 0.001 μM) worked out at 297.7; in assay [2] (agent 0.01 μM) it was 187; in assay [2] (agent 0.1 μM) it was 133.
